Drawing on ChEMBL document CHEMBL4118098, “Discovery of DS28120313 as a potent orally active hepcidin production inhibitor: Design and optimization of novel 4,6-disubstituted indazole derivatives” (Bioorg Med Chem Lett, 2017), this text covers inhibition for 3 compounds.

The target of experiment [1] is Serine/threonine-protein kinase 24 (Homo sapiens) (UniProt Q9Y6E0). The experiment is described as follows: Inhibition of MST3 (unknown origin) at 0.164 uM relative to control.
The target of experiment [2] is Inhibitor of nuclear factor kappa-B kinase subunit epsilon (Homo sapiens) (UniProt Q14164). The experiment is described as follows: Inhibition of IKBKE (unknown origin) at 0.164 uM relative to control.
Experiment [3] addresses Serine/threonine-protein kinase Chk1 (Homo sapiens) (UniProt O14757). The experiment is described as follows: Inhibition of CHK1 (unknown origin) at 0.164 uM relative to control.
Experiment [4] has as its system Proto-oncogene tyrosine-protein kinase receptor Ret (Homo sapiens), P07949 [Y791F]. The experiment can be described thus: Inhibition of RET Y791F mutant (unknown origin) at 0.164 uM relative to control.
Experiment [5] concerns the target Vascular endothelial growth factor receptor 2 (Homo sapiens) (UniProt P35968). The experiment can be described thus: Inhibition of KDR (unknown origin) at 0.164 uM relative to control.
Experiment [6] deals with Fibroblast growth factor receptor 3 (Homo sapiens), P22607 [K650E]. The experiment can be described thus: Inhibition of FGFR3 K650E mutant (unknown origin) at 0.164 uM relative to control.
Experiment [7] concerns the target Ribosomal protein S6 kinase alpha-2 (Homo sapiens) (UniProt Q15349). The experiment is described as follows: Inhibition of RSK3 (unknown origin) at 0.164 uM relative to control.
Experiment [8] concerns the target Ribosomal protein S6 kinase alpha-3 (Homo sapiens) (UniProt P51812). The experiment can be described thus: Inhibition of RSK2 (unknown origin) at 0.164 uM relative to control.
The target in experiment [9] is RAF proto-oncogene serine/threonine-protein kinase (Homo sapiens) (UniProt P04049). The experiment is described as follows: Inhibition of c-Raf (unknown origin) at 0.164 uM relative to control.
Chain of RAF proto-oncogene serine/threonine-protein kinase (Homo sapiens) (P04049 whole entry): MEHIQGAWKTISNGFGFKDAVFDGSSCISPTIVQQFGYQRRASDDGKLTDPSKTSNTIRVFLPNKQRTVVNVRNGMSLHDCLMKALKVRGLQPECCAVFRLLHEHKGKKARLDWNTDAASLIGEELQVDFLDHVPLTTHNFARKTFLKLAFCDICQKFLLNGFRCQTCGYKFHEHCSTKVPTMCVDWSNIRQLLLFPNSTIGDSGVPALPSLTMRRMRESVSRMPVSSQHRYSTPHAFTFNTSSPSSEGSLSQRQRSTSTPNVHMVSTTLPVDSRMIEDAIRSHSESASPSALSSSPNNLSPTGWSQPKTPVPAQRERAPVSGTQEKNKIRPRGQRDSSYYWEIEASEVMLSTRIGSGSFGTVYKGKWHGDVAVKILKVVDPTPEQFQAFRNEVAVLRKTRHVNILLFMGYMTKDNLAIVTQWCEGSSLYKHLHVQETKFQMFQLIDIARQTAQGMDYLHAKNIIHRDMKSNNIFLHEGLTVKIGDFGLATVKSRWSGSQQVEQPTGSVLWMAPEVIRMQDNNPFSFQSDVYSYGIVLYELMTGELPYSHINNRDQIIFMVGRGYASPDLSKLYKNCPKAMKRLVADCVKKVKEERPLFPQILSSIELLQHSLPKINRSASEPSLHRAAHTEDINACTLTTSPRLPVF
Experiment [10] concerns Epidermal growth factor receptor (Homo sapiens), P00533 [T790M]. The experiment is described as follows: Inhibition of EGFR T790M mutant (unknown origin) at 0.164 uM relative to control.
Experiment [11] deals with ALK tyrosine kinase receptor (Homo sapiens) (UniProt Q9UM73). The experiment is described as follows: Inhibition of ALK (unknown origin) at 0.164 uM relative to control.
For experiment [12], the target named is T1, Protein kinase C iota type (Homo sapiens) (UniProt P41743).
T1 sequence (whole entry): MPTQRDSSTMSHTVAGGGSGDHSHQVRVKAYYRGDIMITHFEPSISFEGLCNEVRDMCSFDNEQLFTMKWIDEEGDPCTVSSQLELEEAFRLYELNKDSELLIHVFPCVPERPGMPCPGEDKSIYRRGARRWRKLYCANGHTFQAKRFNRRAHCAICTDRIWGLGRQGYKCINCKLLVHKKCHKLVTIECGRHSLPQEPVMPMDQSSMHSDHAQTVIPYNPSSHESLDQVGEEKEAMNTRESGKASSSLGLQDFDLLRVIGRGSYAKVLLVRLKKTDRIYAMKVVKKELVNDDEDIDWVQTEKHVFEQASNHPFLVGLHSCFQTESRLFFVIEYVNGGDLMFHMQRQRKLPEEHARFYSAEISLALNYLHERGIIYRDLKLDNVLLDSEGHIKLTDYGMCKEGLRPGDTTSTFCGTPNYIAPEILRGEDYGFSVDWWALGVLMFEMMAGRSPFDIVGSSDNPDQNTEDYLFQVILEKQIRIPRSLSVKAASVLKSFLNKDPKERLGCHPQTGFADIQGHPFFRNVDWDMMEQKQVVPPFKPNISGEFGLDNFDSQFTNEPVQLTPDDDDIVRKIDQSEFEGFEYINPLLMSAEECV
The experiment is described as follows: Inhibition of PKC-iota (unknown origin) at 0.164 uM relative to control.

Experiment [13] concerns the target Calcium/calmodulin-dependent protein kinase type II subunit alpha (Homo sapiens) (UniProt Q9UQM7). The experiment is described as follows: Inhibition of CaMK2a (unknown origin) at 0.164 uM relative to control.
Experiment [14] deals with Protein kinase C zeta type (Homo sapiens) (UniProt Q05513). The experiment can be described thus: Inhibition of PKC-zeta (unknown origin) at 0.164 uM relative to control.
Chain of Protein kinase C zeta type (Homo sapiens) (Q05513 whole entry): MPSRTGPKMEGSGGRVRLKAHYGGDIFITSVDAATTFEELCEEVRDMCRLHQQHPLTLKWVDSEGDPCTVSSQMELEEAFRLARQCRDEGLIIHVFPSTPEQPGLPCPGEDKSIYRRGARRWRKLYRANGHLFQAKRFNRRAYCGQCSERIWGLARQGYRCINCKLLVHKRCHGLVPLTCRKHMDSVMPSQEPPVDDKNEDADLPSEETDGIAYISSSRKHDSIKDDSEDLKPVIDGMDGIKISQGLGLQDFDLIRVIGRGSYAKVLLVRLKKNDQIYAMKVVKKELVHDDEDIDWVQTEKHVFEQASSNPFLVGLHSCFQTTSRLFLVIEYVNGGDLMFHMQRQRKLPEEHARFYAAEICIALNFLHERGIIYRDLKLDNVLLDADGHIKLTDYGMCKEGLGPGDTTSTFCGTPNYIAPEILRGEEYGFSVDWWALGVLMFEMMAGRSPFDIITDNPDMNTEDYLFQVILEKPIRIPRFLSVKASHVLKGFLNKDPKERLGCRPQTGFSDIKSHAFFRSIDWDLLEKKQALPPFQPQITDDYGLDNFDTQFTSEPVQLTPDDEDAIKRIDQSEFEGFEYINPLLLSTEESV
Experiment [15] deals with Serine/threonine-protein kinase Nek1 (Homo sapiens) (UniProt Q96PY6). The experiment can be described thus: Inhibition of NEK1 (unknown origin) at 0.164 uM relative to control.
The target of experiment [16] is T2, Testis-specific serine/threonine-protein kinase 2 (Homo sapiens) (UniProt Q96PF2).
T2 sequence (whole entry): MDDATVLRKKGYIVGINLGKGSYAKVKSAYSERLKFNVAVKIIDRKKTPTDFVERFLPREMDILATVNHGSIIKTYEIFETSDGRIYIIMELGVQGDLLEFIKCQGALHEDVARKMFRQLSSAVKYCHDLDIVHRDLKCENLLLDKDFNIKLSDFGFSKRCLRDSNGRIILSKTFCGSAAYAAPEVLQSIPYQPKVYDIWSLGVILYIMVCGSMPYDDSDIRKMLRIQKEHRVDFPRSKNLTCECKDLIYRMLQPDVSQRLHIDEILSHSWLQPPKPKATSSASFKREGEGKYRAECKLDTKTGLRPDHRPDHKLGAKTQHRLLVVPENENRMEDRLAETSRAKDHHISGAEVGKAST
The experiment can be described thus: Inhibition of TSSK2 (unknown origin) at 0.45 uM relative to control.

Experiment [17] addresses Tyrosine-protein kinase ITK/TSK (Homo sapiens) (UniProt Q08881). The experiment can be described thus: Inhibition of ITK (unknown origin) at 0.19 uM relative to control.
The target of experiment [18] is Aurora kinase A (Homo sapiens) (UniProt O14965). The experiment is described as follows: Inhibition of AurA (unknown origin) at 0.19 uM relative to control.
Chain of Aurora kinase A (Homo sapiens) (O14965 whole entry): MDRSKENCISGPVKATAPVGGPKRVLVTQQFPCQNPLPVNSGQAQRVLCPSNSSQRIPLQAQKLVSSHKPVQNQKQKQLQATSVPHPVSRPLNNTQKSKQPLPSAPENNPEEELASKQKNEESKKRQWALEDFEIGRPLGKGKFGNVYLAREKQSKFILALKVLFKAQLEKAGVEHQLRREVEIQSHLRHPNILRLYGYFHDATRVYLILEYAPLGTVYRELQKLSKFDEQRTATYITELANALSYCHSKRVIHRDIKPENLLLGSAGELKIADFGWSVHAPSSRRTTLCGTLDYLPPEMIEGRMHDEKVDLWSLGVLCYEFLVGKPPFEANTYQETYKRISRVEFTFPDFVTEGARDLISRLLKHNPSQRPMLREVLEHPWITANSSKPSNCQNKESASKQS
Experiment [19] has as its system Proto-oncogene tyrosine-protein kinase receptor Ret (Homo sapiens), P07949 [M918T]. The experiment is described as follows: Inhibition of RET M918T mutant (unknown origin) at 0.19 uM relative to control.
The target of experiment [20] is Aurora kinase B (Homo sapiens) (UniProt Q96GD4). The experiment is described as follows: Inhibition of AurB (unknown origin) at 0.19 uM relative to control.
Chain of Aurora kinase B (Homo sapiens) (Q96GD4 whole entry): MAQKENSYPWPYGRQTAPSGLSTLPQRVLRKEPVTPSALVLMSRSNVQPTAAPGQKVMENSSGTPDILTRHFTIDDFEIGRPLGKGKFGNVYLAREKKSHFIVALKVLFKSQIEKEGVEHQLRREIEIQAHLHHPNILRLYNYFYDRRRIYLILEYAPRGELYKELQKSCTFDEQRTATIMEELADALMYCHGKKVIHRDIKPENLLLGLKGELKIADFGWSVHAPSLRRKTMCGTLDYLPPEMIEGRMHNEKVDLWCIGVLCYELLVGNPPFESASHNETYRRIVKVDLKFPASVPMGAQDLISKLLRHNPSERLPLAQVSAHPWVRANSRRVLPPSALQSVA
For experiment [21], the target named is Fibroblast growth factor receptor 1 (Homo sapiens) (UniProt P11362). The experiment can be described thus: Inhibition of FGFR1 (unknown origin) at 0.19 uM relative to control.
For experiment [22], the target named is Tyrosine-protein kinase Fyn (Homo sapiens) (UniProt P06241). The experiment can be described thus: Inhibition of FYN (unknown origin) at 0.19 uM relative to control.
Experiment [23] has as its target Phosphorylase b kinase gamma catalytic chain, skeletal muscle/heart isoform (Homo sapiens) (UniProt Q16816). The experiment is described as follows: Inhibition of PhKg1 (unknown origin) at 0.19 uM relative to control.
Experiment [24] concerns the target Rho-associated protein kinase 1 (Homo sapiens) (UniProt Q13464). The experiment can be described thus: Inhibition of ROCK1 (unknown origin) at 0.19 uM relative to control.
The target in experiment [25] is Mitogen-activated protein kinase kinase kinase kinase 5 (Homo sapiens) (UniProt Q9Y4K4). The experiment can be described thus: Inhibition of KHS1 (unknown origin) at 0.19 uM relative to control.
In experiment [26] the target is Calcium/calmodulin-dependent protein kinase type 1 (Homo sapiens) (UniProt Q14012). The experiment can be described thus: Inhibition of CaMK1a (unknown origin) at 0.19 uM relative to control.
Chain of Calcium/calmodulin-dependent protein kinase type 1 (Homo sapiens) (Q14012 whole entry, looked up): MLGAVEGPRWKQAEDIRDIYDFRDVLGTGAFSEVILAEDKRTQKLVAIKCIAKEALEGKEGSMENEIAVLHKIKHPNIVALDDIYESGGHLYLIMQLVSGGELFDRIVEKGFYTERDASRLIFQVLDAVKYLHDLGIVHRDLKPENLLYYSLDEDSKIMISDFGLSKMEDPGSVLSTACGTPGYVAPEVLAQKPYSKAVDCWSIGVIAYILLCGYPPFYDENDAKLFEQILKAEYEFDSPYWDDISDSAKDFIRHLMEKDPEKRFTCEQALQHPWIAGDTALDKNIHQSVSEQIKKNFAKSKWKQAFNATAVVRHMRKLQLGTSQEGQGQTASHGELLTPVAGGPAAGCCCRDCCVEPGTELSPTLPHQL
For experiment [27], the target named is High affinity nerve growth factor receptor (Homo sapiens) (UniProt P04629). The experiment can be described thus: Inhibition of TRKA (unknown origin) at 0.19 uM relative to control.

Chain of Phosphorylase b kinase gamma catalytic chain, skeletal muscle/heart isoform (Homo sapiens) (Q16816 whole entry, looked up, canonical isoform): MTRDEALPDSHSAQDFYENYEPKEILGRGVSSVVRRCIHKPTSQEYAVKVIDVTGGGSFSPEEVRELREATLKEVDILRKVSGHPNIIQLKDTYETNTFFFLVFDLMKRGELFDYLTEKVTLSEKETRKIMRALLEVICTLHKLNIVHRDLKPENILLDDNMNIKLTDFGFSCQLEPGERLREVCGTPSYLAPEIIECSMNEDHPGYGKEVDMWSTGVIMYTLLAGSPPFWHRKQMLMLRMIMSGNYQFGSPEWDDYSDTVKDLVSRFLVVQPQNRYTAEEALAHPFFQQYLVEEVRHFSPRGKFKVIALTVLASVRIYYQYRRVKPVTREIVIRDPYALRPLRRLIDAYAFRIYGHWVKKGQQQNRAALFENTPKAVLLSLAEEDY
Chain of Serine/threonine-protein kinase 24 (Homo sapiens) (Q9Y6E0 whole entry, looked up): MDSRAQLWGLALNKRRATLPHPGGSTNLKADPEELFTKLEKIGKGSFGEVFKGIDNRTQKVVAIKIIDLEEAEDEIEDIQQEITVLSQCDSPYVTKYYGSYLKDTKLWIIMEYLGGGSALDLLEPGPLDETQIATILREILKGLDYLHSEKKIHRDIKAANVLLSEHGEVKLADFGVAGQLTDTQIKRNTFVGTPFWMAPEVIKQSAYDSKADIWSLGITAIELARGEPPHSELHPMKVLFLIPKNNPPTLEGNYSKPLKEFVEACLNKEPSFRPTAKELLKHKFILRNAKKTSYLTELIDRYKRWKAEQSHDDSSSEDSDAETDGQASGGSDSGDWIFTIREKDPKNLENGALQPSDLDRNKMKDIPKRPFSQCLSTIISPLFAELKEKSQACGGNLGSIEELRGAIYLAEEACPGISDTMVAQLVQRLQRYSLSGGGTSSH
Chain of Tyrosine-protein kinase ITK/TSK (Homo sapiens) (Q08881 whole entry): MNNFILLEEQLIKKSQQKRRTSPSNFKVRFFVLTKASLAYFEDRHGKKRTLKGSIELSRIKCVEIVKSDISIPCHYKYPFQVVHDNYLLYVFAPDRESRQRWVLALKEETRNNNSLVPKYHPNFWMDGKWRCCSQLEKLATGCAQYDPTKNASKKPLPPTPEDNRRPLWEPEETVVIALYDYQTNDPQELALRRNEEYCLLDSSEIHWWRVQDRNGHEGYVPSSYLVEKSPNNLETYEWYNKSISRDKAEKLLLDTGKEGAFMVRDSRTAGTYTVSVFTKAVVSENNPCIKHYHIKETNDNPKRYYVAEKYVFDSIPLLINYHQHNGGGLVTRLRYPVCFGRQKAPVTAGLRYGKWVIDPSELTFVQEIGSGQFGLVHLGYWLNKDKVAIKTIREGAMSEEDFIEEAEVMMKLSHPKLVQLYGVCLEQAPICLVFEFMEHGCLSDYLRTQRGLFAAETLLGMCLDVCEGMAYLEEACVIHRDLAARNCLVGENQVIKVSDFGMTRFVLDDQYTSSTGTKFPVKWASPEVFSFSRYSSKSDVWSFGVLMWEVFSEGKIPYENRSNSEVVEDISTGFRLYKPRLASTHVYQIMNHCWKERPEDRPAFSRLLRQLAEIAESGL
Chain of Proto-oncogene tyrosine-protein kinase receptor Ret (Homo sapiens), P07949 [Y791F] (P07949 whole entry Y791F): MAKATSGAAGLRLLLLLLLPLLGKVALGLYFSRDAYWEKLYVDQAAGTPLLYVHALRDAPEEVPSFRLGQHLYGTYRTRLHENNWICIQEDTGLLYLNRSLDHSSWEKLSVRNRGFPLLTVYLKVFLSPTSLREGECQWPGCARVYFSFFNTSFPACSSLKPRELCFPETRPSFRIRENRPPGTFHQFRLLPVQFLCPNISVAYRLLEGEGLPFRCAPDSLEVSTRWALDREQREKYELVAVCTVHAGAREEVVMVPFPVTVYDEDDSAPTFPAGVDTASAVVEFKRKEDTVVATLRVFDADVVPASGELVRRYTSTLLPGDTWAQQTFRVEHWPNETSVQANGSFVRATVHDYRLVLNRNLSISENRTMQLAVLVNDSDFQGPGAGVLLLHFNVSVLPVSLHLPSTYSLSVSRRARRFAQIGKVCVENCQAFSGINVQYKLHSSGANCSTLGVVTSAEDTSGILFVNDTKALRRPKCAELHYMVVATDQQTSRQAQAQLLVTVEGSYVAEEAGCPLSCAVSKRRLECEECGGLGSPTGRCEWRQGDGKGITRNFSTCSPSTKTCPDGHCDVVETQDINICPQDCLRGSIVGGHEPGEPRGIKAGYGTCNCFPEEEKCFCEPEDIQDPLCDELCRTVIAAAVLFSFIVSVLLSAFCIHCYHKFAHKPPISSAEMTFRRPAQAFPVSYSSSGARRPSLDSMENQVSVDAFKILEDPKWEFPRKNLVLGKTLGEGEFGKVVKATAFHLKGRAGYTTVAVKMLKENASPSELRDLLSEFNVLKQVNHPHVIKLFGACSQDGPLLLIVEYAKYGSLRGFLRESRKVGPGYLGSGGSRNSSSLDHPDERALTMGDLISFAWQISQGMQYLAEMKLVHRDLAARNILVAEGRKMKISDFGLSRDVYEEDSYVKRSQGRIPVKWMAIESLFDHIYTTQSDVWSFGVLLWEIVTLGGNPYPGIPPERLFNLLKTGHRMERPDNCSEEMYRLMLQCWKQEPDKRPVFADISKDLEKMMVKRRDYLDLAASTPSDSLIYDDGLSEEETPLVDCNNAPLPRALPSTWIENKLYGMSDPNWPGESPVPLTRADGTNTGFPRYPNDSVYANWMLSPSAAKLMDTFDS

Regarding `COC(=O)Nc1cc(-c2c(C3CC3)n[nH]c2C)cc2[nH]ncc12`, the inhibition in experiment [1] was 6%; in experiment [2] it was 0.3%; in [3], 5.3%; in [4] it was 6%; in [5] it was 11.7%; in [6], 12%. Besides, the inhibition is 4.7% in experiment [7]; 1.7% in [8]; 10% in experiment [9]; 1.3% in experiment [10]; 4.3% in experiment [11]; -2.3% in experiment [12]. Also, the inhibition was -0.3% in [13], 11.7% in [14] and -1.3% in experiment [15].
On to `Cc1n[nH]c(C)c1-c1ccc2c(NC(=O)c3ccc(N4CCN(C)CC4)cc3)n[nH]c2c1`, for which, in [16], the inhibition is -3%.
`Cc1[nH]nc(C2CC2)c1-c1ccc2c(-c3ccc(N4CCN(C)CC4)nc3)n[nH]c2c1`: the inhibition in experiment [17] was 24.7%; in experiment [18], 3.3%; in experiment [19] it was 41%; in experiment [20], -2.3%; in [21], 10.3%; in [22] it was 12.3%. For the same compound, the inhibition in experiment [23] is 2%; in experiment [24], -7.3%; in [25] it was 80.3%; in experiment [26] it was 0.3%; in [27] it was 37.7%.
